Reference: patent publication US20140235545A1, “The use of HCV immunogenic peptide or a derivative thereof in the prevention or treatment of arthritis” (priority 2011, published 2014)
“Also recorded” adds a separate entry of the source. No end group written: not given here.

Tested on: combined collagen-adjuvant induced arthritis (calf type II collagen in combination with Freund's complete adjuvant)
Test: Protective effect of peptide A on combined collagen-adjuvant induced arthritis in rats
Type: in vivo, SD rats
Details: for ankle joint swelling value: X±SD; for ankle joint swelling value / Lesion scoring ( X ± SD), joint lesion severity: n=10; for inhibition rate of ankle joint swelling: vs model group; for Lesion scoring ( X ± SD), joint lesion severity / state of joint synovial tissue (HE sections): 32nd day; for Lesion scoring ( X ± SD), joint lesion severity: left rear ankle joint histopathology, lower score = milder
Description: SPF-level SD rats, each weighting 180 g˜220 g, with male and female each in half, provided by Experimental Animal Center of Chinese Academy of Military Medical.
Peptide with the following sequence is used: GQTYTSG (hereinafter referred to as peptide A), which is synthesized by solid phase peptide synthesis method using 413A automatic peptide synthesizer (available from Perkin Elmer Corporation), the detailed synthetic steps is described in Example 1 of PCT/CN2006/001176. The peptide was to be dissolved in physiological saline when used.
SD rats, with male and female each in half, were randomly divided into five groups with 10 rats in each group, respectively are model group (employing physiological saline, calf type II collagen and Freund's complete adjuvant); control group (employing the same volume of physiological saline as the model group); peptide A high, medium and low dose groups (employing calf type II collagen, Freund's complete adjuvant and peptide A, wherein each group is given different doses of peptide A, respectively are 174 μg/kg·d, 87 μg/kg·d and 43.5 μg/kg·d, peptide A is dissolved in physiological saline to form peptide A solution with desired concentration). Peptide A solution in each dose was administered by subcutaneous injection, 0.1 ml of peptide A solution per 100 g body weight of rats. The control group employed the same amount of physiological saline as that of the peptide A solution (0.1 ml of physiological saline per 100 g body weight of rats).
10 mg of calf type II collagen was dissolved into 5 ml 0.1 mol/L of acetic acid solution, and then the resulting solution was placed in a refrigerator at 4° C. overnight, the next day, the solution was mixed with Freund's complete adjuvant in a volume ratio of 1:1, the resulting mixture is sucked and discharged repeatedly by a syringe, until the mixture was emulsified into an emulsion completely. Each group rats were administered according to the following manner. These rats were normally fed every day during the administration.
On the 1st day, except the control group, for rats of other groups (the model group and the peptide A high, medium and low dose groups), 0.5 ml of the emulsion (prepared by calf type II collagen and Freund's complete adjuvant as above) was subcutaneously injected into the base of the tail of every rat, and the injection site is pressed slightly for 30 s so that the emulsion was completely absorbed. On the 8th day, emulsion injection is conducted again in the same way, 0.5 ml for every rat.
From the 2nd day (including this day), the rats of peptide A high, medium and low dose groups each were administered with corresponding dose of peptide A. Then, they were subcutaneously injected with corresponding dose of peptide A for one time every other day, a total of 15 times; at the same time, the rats of the control group and the model group were subcutaneously injected the same amount of physiological saline as that of peptide A for the high, medium and low dose groups every other day, a total of 15 times.
Measurement for the experimental results was conducted as follows. Firstly, before administration to rats of each group, left rear ankle circumference of each rat was measured by a flexible rule as a base value, and then circumference of left rear ankle with inflammation of each rat was measured at the 4th, 8th, 12th, 16th, 20th, 24th, 28th, and 32nd day, respectively. Swelling value obtained by circumference after inflammation minus circumference before inflammation was used to observe changes of primary and secondary inflammation of combined collagen-adjuvant induced rats.
Secondly, at the 32nd day, rats of each group were killed, and their left rear foot ankle joints ware quickly taken out, fixed in 10% formalin and then embedded in paraffin after decalcification, sectioned and stained with HE. […]

[1] = high dose 174 μg/kg·d s.c., the 4th day
[2] = high dose 174 μg/kg·d s.c., the 8th day
[3] = high dose 174 μg/kg·d s.c., the 12th day
[4] = high dose 174 μg/kg·d s.c., the 16th day
[5] = high dose 174 μg/kg·d s.c., the 20th day
[6] = high dose 174 μg/kg·d s.c., the 24th day
[7] = high dose 174 μg/kg·d s.c., the 28th day
[8] = high dose 174 μg/kg·d s.c., the 32nd day
[9] = low dose 43.5 μg/kg·d s.c., the 4th day
[10] = low dose 43.5 μg/kg·d s.c., the 8th day
[11] = low dose 43.5 μg/kg·d s.c., the 12th day
[12] = low dose 43.5 μg/kg·d s.c., the 16th day
[13] = low dose 43.5 μg/kg·d s.c., the 20th day
[14] = low dose 43.5 μg/kg·d s.c., the 24th day
[15] = low dose 43.5 μg/kg·d s.c., the 28th day
[16] = low dose 43.5 μg/kg·d s.c., the 32nd day
[17] = medium dose 87 μg/kg·d s.c., the 4th day
[18] = medium dose 87 μg/kg·d s.c., the 8th day
[19] = medium dose 87 μg/kg·d s.c., the 12th day
[20] = medium dose 87 μg/kg·d s.c., the 16th day
[21] = medium dose 87 μg/kg·d s.c., the 20th day
[22] = medium dose 87 μg/kg·d s.c., the 24th day
[23] = medium dose 87 μg/kg·d s.c., the 28th day
[24] = medium dose 87 μg/kg·d s.c., the 32nd day

GQTYTSG [Peptide A]
arthritis lesion (histopathology) after administration (all dose groups, effect in descending order high, medium, low): reduced in different degrees
ankle joint swelling value [1]: 7.3 ± 1.8 mm
inhibition rate of ankle joint swelling [1]: (20.6%)
ankle joint swelling value [2]: 8.2 ± 1.5 mm
inhibition rate of ankle joint swelling [2]: (34.4%)
ankle joint swelling value [3]: 9.5 ± 2.1 mm
inhibition rate of ankle joint swelling [3]: (30.1%)
ankle joint swelling value [4]: 9.8 ± 1.7 mm
inhibition rate of ankle joint swelling [4]: (35.5%)
ankle joint swelling value [5]: 10.2 ± 1.9 mm
inhibition rate of ankle joint swelling [5]: (41.4%)
ankle joint swelling value [6]: 10.5 ± 1.9 mm
inhibition rate of ankle joint swelling [6]: (44.1%)
ankle joint swelling value [7]: 11.4 ± 1.6 mm
inhibition rate of ankle joint swelling [7]: (38.7%)
ankle joint swelling value [8]: 12.0 ± 1.6 mm
inhibition rate of ankle joint swelling [8]: (30.6%)
Lesion scoring ( X ± SD), joint lesion severity (high dose group (174 μg/kg·d s.c.)): 3.73 ± 1.57
inhibition rate to the joint swelling (high dose group (174 μg/kg·d)): ~45%
state of joint synovial tissue (HE sections) (high dose group, FIGS. 5a and 5b): mild congestion of local synovial tissue of the rats, having no significant surface proliferation
joint swelling compared with rats of the model group (high, medium and low dose groups, observation): significantly reduced joint swelling
skin ulcer symptom (high, medium and low dose groups, part of model rats had skin ulcers on the 24th day): did not have skin ulcer symptom
ankle joint swelling value [9]: 8.8 ± 1.6 mm
inhibition rate of ankle joint swelling [9]: (4.3%)
ankle joint swelling value [10]: 10.2 ± 1.7 mm
inhibition rate of ankle joint swelling [10]: (18.4%)
ankle joint swelling value [11]: 11.2 ± 1.8 mm
inhibition rate of ankle joint swelling [11]: (17.6%)
ankle joint swelling value [12]: 12.3 ± 1.8 mm
inhibition rate of ankle joint swelling [12]: (19.1%)
ankle joint swelling value [13]: 13.4 ± 1.7 mm
inhibition rate of ankle joint swelling [13]: (23.0%)
ankle joint swelling value [14]: 14.6 ± 1.8 mm
inhibition rate of ankle joint swelling [14]: (22.3%)
ankle joint swelling value [15]: 14.8 ± 2.2 mm
inhibition rate of ankle joint swelling [15]: (20.4%)
ankle joint swelling value [16]: 14.5 ± 1.8 mm
inhibition rate of ankle joint swelling [16]: (16.2%)
Lesion scoring ( X ± SD), joint lesion severity (low dose group (43.5 μg/kg·d s.c.)): 4.36 ± 1.15
state of joint synovial tissue (HE sections) (low dose group, FIGS. 3a and 3b): mild congestion and significant proliferation and surface projection of the synovial tissue, as well as mild degeneration of covering synovial cells
ankle joint swelling value [17]: 8.2 ± 1.5 mm
inhibition rate of ankle joint swelling [17]: (10.9%)
ankle joint swelling value [18]: 9.3 ± 2.2 mm
inhibition rate of ankle joint swelling [18]: (25.6%)
ankle joint swelling value [19]: 9.9 ± 1.8 mm
inhibition rate of ankle joint swelling [19]: (27.2%)
ankle joint swelling value [20]: 11.4 ± 1.6 mm
inhibition rate of ankle joint swelling [20]: (25.0%)
ankle joint swelling value [21]: 12.2 ± 1.7 mm
inhibition rate of ankle joint swelling [21]: (29.9%)
ankle joint swelling value [22]: 12.6 ± 2.1 mm
inhibition rate of ankle joint swelling [22]: (33.0%)
ankle joint swelling value [23]: 13.7 ± 1.8 mm
inhibition rate of ankle joint swelling [23]: (26.3%)
ankle joint swelling value [24]: 13.9 ± 1.7 mm
inhibition rate of ankle joint swelling [24]: (19.6%)
Lesion scoring ( X ± SD), joint lesion severity (medium dose group (87 μg/kg·d s.c.)): 4.12 ± 1.28
state of joint synovial tissue (HE sections) (medium dose group, FIGS. 4a and 4b): mild congestion of local synovial tissue and infiltration of few inflammatory cells; also recorded: mild congestion, uneven surface and mild proliferation of the synovial tissue
